Converted amounts (≈) assume the structure as drawn. Like-named read-outs stand apart in the source and are kept apart here.
Tests used:
[1] = Mammalian cytotoxicity assay (resazurin), COS-1 cells; assay type: cell-based; conditions: African green monkey, read-out: Cytotox. COS-1
In short: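 Cells seeded overnight at 37° C., 5% CO2, then exposed to serial compound dilutions for 24 hours. Medium replaced with resazurin (0.042 mg/ml in PBS with Ca and Mg) for 2 hours plus 30 minutes dark at room temperature; fluorescence read at ex 535/em 590 nm, IC50 taken as 50% growth inhibition.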

in vitro = assay type: cell-based; conditions: Chinese hamster, Cytotox. CHO-K1
gram negative bacteria = assay: In vitro anti-bacterial activity assay (broth dilution MIC), gram negative bacteria; assay type: cell-based, E. coli
In short: (§1)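 Broth dilution MIC following CLSI M7-A2: compounds serially diluted, log-phase test strains added to final ~5×10^5 CFU/ml, incubated ~18 hours at 35° C in ambient air. Plates read on microplate reader or visually; MIC is lowest concentration inhibiting growth.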

3T3 fibroblast cells = assay: In vitro phototoxicity assay (neutral red; UV light-treated vs dark control plates); assay type: cell-based; conditions: for Photo Toxicity UV Tox50: UV light 50 minutes; for Photo Toxicity Dark Tox50: dark control plate
In short: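 Neutral red viability readout (A535 after EtOH/acetic acid extraction) compares paired plates: one exposed 50 min to UV at 1.6–1.8 mW/cm^2, one held in darkness, both dosed with compound in HBSS and recovered overnight. 3T3 fibroblast cells used; phototoxicity taken as the difference.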

gram positive bacteria = assay: In vitro anti-bacterial activity assay (broth dilution MIC), gram positive bacteria; assay type: cell-based, S. aureus; conditions: 18 h
In short: as §1

[2] = Escherichia coli, 18 h, E. coli D1 209, read-out: Median MIC's G− E. coli D1 209
[3] = Escherichia coli, 18 h, E. coli MG 1655, read-out: Median MIC's G− E. coli MG 1655
[4] = Escherichia coli, ATCC25922, 18 h, E. coli ATCC 25922, read-out: Median MIC's G− E. coli ATCC 25922
[5] = Pseudomonas aeruginosa, 18 h, P. aeruginosa K201 PAO6609, read-out: Median MIC's G− P. aeruginosa K201 PAO6609
[6] = Staphylococcus aureus, S. aureus MRSA5, read-out: Median MIC's G+ S. aureus MRSA5
[7] = Staphylococcus aureus, S. aureus RN450, read-out: Median MIC's G+ S. aureus RN450
[8] = Streptococcus pneumoniae, S. pneumoniae 157E-Strep, read-out: Median MIC's G+ S. pneumoniae 157E-Strep

Compound | IC50 at 24 h [1] | IC50 at 24 h (in vitro) | MIC (gram negative bacteria; [2]) | MIC (gram negative bacteria; [3]) | MIC (gram negative bacteria; [4]) | MIC (gram negative bacteria; [5]) | Photo Toxicity UV Tox50 (3T3 fibroblast cells) | Photo Toxicity Dark Tox50 (3T3 fibroblast cells) | MIC (gram positive bacteria; [6]) | MIC (gram positive bacteria; [7]) | MIC (gram positive bacteria; [8])
CC(C)N(CCNC(=O)c1cccc(-c2ccc(O)c3c2C[C@H]2C[C@H]4[C@H](N(C)C)C(O)=C(C(N)=O)C(=O)[C@@]4(O)C(O)=C2C3=O)c1)C(C)C [T] | > 41.4 µM | 36.2 µM | 8 µg/mL (≈ 12.1 µM) | 16 µg/mL (≈ 24.2 µM) | 4 µg/mL (≈ 6.05 µM) | 64 µg/mL (≈ 96.9 µM) | >133.57 µM | >133.57 µM | 4 µg/mL (≈ 6.05 µM) | 0.13 µg/mL (≈ 0.197 µM) | 0.06 µg/mL (≈ 0.0908 µM)
CN(C)[C@@H]1C(O)=C(C(N)=O)C(=O)[C@@]2(O)C(O)=C3C(=O)c4c(O)ccc(-c5cccc(C(=O)NCCN6CCCCC6)c5)c4C[C@H]3C[C@@H]12 [U] | > 41 µM | > 41 µM | 8 µg/mL (≈ 12.4 µM) | 4 µg/mL (≈ 6.2 µM) | 4 µg/mL (≈ 6.2 µM) | 64 µg/mL (≈ 99.3 µM) | >132.37 µM | >132.37 µM | 8 µg/mL (≈ 12.4 µM) | 0.25 µg/mL (≈ 0.388 µM) | 0.06 µg/mL (≈ 0.0931 µM)
CN(C)CCNC(=O)c1cccc(-c2cc(N(C)C)c3c(c2O)C(=O)C2=C(O)[C@]4(O)C(=O)C(C(N)=O)=C(O)[C@@H](N(C)C)[C@@H]4C[C@@H]2C3)c1 [V, (4S,4aS,5aR,12aS)-4,7-Bis-dimethylamino-9-[3-(2-dimethylamino-ethylcarbamoyl)-phenyl]-3,10,12,12a-tetrahydroxy-1,11-dioxo-1,4,4a,5,5a,6,11,12a-octahydro-naphthacene-2-carboxylic acid amide] | > 125 µM | > 125 µM | 64 µg/mL (≈ 98.8 µM) | 64 µg/mL (≈ 98.8 µM) | 64 µg/mL (≈ 98.8 µM) | 64 µg/mL (≈ 98.8 µM) | >125.47 µM | >125.47 µM | 64 µg/mL (≈ 98.8 µM) | 16 µg/mL (≈ 24.7 µM) | 32 µg/mL (≈ 49.4 µM)
CN(C)[C@@H]1C(O)=C(C(N)=O)C(=O)[C@@]2(O)C(O)=C3C(=O)c4c(O)ccc(-c5cccc(C(=O)NCc6ccco6)c5)c4C[C@H]3C[C@@H]12 [Y] | > 14.6 µM | > 14.6 µM | 64 µg/mL (≈ 104 µM) | 64 µg/mL (≈ 104 µM) | 64 µg/mL (≈ 104 µM) | 64 µg/mL (≈ 104 µM) | >146.13 µM | >146.13 µM | 1 µg/mL (≈ 1.63 µM) | 0.06 µg/mL (≈ 0.0978 µM) | 0.06 µg/mL (≈ 0.0978 µM)
CN(C)CCNC(=O)c1cccc(-c2ccc(O)c3c2C[C@H]2C[C@H]4CC(O)=C(C(N)=O)C(=O)[C@@]4(O)C(O)=C2C3=O)c1 [Z, (4aS,5aR,12aS)-7-[3-(2-Dimethylamino-ethylcarbamoyl)-phenyl]-3,10,12,12a-tetrahydroxy-1,11-dioxo-1,4,4a,5,5a,6,11,12a-octahydro-naphthacene-2-carboxylic acid amide] | > 15.9 µM | > 15.9 µM | 64 µg/mL (≈ 114 µM) | 64 µg/mL (≈ 114 µM) | 64 µg/mL (≈ 114 µM) | 64 µg/mL (≈ 114 µM) | >158.85 µM | >158.85 µM | 64 µg/mL (≈ 114 µM) | 64 µg/mL (≈ 114 µM) | 64 µg/mL (≈ 114 µM)

From US20100022483A1, “Substituted Tetracycline Compounds” (Paratek Pharmaceuticals, Inc., priority 2008, published 2010)
